Patent US11578054B2, “Compounds useful as immunomodulators” (Bristol-Myers Squibb Company, priority 2018, dated 2023)

Target: PD-1/PD-L1 (Homo sapiens (Human), UniProt Q9NZQ7)
Experiment: PD-1/PD-L1 Homogenous Time-Resolved Fluorescence (HTRF) binding assay
Conditions: PD-L1-His 10 nM, PD-1-Ig 20 nM
Description: The ability of the compounds of formula (I) to bind to PD-L1 was investigated using a PD-1/PD-L1 Homogenous Time-Resolved Fluorescence (HTRF) binding assay.
Homogenous Time-Resolved Fluorescence (HTRF) binding assay.
The interaction of PD-1 and PD-L1 can be assessed using soluble, purified preparations of the extracellular domains of the two proteins. The PD-1 and PD-L1 protein extracellular domains were expressed as fusion proteins with detection tags, for PD-1, the tag was the Fc portion of Immunoglobulin (PD-1-Ig) and for PD-L1 it was the 6 histidine motif (PD-L1-His). All binding studies were performed in an HTRF assay buffer consisting of dPBS supplemented with 0.1% […] bovine serum albumin and 0.05% (v/v) Tween-20. For the h/PD-L1-His binding assay, inhibitors were pre-incubated with PD-L1-His (10 nM final) for 15m in 4 μl of assay buffer, followed by addition of PD-1-Ig (20 nM final) in 1 µl of assay buffer and further incubation for 15m. HTRF detection was achieved using europium crypate-labeled anti-Ig (1 nM final) and allophycocyanin (APC) labeled anti-His (20 nM final). Antibodies were diluted in HTRF detection buffer and 5 μl was dispensed on top of the binding reaction. The reaction mixture was allowed to equilibrate for 30 minutes and the resulting signal (665 nm/620 nm ratio) was obtained using an EnVision fluorometer. Additional binding assays were established between the human proteins PD-1-Ig/PD-L2-His (20 & 5 nM, respectively) and CD8O-His/PD-L1-Ig (100 & 10 nM, respectively).
Recombinant Proteins: Human PD-1 (25-167) with a C-terminal human Fc domain of immunoglobulin G (Ig) epitope tag [hPD-1 (25-167)-3S-IG] and human PD-L1 (18-239) with a C-terminal His epitope tag [hPD-L1(18-239)-TVMV-His] were expressed in HEK293T cells and purified sequentially by ProteinA affinity chromatography and size exclusion chromatography. Human PD-L2-His and CD8O-His was obtained through commercial sources.
The table below lists the IC50 values for representative examples of this disclosure measured in the PD-1/PD-L1 Homogenous Time-Resolved Fluorescence (HTRF) binding assay.

PD-1/PD-L1, sequence (Q9NZQ7 other isoform, or with tags, fused parts or gaps): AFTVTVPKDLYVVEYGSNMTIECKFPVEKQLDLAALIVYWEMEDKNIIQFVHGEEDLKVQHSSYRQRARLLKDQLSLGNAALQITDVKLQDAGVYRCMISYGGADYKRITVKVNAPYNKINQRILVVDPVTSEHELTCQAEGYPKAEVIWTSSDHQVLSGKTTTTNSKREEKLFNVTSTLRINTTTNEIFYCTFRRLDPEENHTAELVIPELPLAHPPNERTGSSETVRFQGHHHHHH

IC50: 0.9 nM
Structure (SMILES): CN1CCCC(COc2cccc(-c3cccc4c3CCC4Oc3cc(OCc4cncc(C#N)c4)c(CN[C@](C)(CO)C(=O)O)cc3Cl)c2Cl)C1 (stereo partly drawn) [Example 1002, (2R)-2-((5-Chloro-4-((4-(2-chloro-3-((1-methylpiperidin-3-yl)methoxy)phenyl)-2,3-dihydro-1H-inden-1-yl)oxy)-2-((5-cyanopyridin-3-yl)methoxy)benzyl)amino)-3-hydroxy-2-methylpropanoic acid]
